We go through 22 compounds from patent US10689354B2, “Aminoazole derivative” (Teijin Pharma Limited, priority 2015, dated 2020).

A value given as a limit tells only on which side of the number the result lay.

Assay [1] has as its target T1, androgen receptor (AR-LBD) (Rattus norvegicus, UniProt P15207).
T1 construct: 5 μL of 2×AR-LBD/Fluoromone AL Red Complex contained in the kit; purchased Invitrogen
T1 sequence (P15207 651-882 limits assumed): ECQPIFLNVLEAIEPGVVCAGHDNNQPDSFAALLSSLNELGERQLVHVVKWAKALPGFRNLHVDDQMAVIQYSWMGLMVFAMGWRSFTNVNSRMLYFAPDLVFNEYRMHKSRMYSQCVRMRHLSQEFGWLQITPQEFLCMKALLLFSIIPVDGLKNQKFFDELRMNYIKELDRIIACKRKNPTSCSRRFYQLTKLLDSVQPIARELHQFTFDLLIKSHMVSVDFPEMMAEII
The assay can be described thus: Evaluation of androgen receptor affinity (PolarScreen Androgen Receptor Competitor Assay Kit, Red; fluorescence polarization). To be noted: 22° C. for 5 hours, relative to binding rate of 1 μM DHT, read-out: AR affinity (pEC50) (converted). Put shortly:
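Duplicate wells; compound plus AR-LBD tracer complex incubated 22° C for 5 h, then FP measured. Effect compared with 1 μM DHT; 50%-effect concentration expressed as pEC50.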

The target of the next assay is T2, human androgen receptor (Homo sapiens, UniProt P10275).
T2 construct: expressed in transfected cells; host or cells: HEK293
T2 sequence (P10275 1-920): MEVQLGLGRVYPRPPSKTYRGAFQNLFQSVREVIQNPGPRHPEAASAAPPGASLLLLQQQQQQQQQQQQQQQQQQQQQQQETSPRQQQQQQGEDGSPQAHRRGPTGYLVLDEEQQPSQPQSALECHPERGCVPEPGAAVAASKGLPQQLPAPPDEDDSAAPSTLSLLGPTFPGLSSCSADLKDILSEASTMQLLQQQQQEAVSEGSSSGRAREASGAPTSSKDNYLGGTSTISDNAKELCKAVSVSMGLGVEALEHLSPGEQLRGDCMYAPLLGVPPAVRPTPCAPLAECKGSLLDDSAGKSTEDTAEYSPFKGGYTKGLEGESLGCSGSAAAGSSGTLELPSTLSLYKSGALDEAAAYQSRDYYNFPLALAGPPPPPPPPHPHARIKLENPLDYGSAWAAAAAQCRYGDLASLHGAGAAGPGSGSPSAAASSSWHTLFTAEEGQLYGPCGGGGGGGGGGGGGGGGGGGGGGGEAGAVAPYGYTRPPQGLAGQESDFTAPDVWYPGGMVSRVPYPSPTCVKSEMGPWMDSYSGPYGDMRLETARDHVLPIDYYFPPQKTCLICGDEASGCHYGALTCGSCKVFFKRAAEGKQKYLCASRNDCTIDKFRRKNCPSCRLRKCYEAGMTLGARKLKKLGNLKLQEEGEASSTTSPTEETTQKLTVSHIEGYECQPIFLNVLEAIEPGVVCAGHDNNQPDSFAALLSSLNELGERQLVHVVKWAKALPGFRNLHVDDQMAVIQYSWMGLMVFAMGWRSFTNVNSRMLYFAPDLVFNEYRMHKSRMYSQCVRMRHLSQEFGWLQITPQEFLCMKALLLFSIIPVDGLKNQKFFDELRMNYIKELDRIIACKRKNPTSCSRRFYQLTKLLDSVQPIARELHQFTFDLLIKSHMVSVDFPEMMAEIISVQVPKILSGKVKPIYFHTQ
The experiment in a line: Reporter assay of an androgen receptor responsive sequence (luciferase, transiently transfected HEK293 cells). It is filed as cell-based. To be noted: 24 hours incubation, relative to activity of 100 nM DHT, read-out: AR transcriptive activity (pEC50) (converted). In short, it runs like this: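 Agonism scored as pEC50, fitted by 4-parameter curve against the response to 100 nM DHT, from dual-luciferase readout after 24 h compound treatment. Cells were HEK293 co-transfected (3 h) with human AR expression vector, androgen-responsive firefly reporter and Renilla control, in charcoal-stripped serum.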

As to `COCCCS(=O)(=O)NC(=O)c1nc(N(CCc2ccc(OC(F)(F)F)cc2)Cc2ccc(Cl)cn2)oc1C` [Compound 564, 2-[(5-chloro-2-pyridyl)methyl-[2-[4-(trifluoromethoxy)phenyl]ethyl]amino]-N-(3-methoxypropylsulfonyl)-5-methyl-oxazole-4-carboxamide], the EC50 in assay [1] is 158 nM; at human androgen receptor, over 10000 nM.
As for `COCCCS(=O)(=O)NC(=O)c1nc(N(CCc2ccc(C#N)cc2)Cc2ccc(Cl)cc2)sc1C` [Compound 739, 2-[(4-chlorophenyl)methyl-[2-(4-cyanophenyl)ethyl]amino]-N-(3-methoxypropylsulfonyl)-5-methyl-thiazole-4-carboxamide], the EC50 in assay [1] is 31.6 nM; at human androgen receptor it was 251 nM.
For `CS(=O)(=O)NC(=O)c1nc(N(Cc2ccc(OC(F)(F)F)cc2)c2ccc(C#N)cc2)sc1Br` [Example 253, 5-bromo-2-[4-cyano-N-[[4-(trifluoromethoxy)phenyl]methyl]anilino]-N-methylsulfonyl-thiazole-4-carboxamide], in that order: 31.6 nM and 79.4 nM.
Regarding `Cc1sc(N(Cc2ccc(OC(F)F)cc2)c2ccc(C#N)cc2)nc1C(=O)NS(C)(=O)=O` [Compound 41, 2-[4-cyano-N-[[4-(difluoromethoxy)phenyl]methyl]anilino]-5-methyl-N-methylsulfonyl-thiazole-4-carboxamide], the EC50 (in assay [1]; on human androgen receptor) was 31.6 nM in each case.
As for `Cc1sc(N(Cc2ccc(-c3ccc(F)cc3)cn2)c2ccc(C#N)cc2)nc1C(=O)NS(C)(=O)=O` [Compound 595, 2-[4-cyano-N-[[5-(4-fluorophenyl)-2-pyridyl]methyl]anilino]-5-methyl-N-methylsulfonyl-thiazole-4-carboxamide], the EC50 in assay [1] was 100 nM; on human androgen receptor, 1260 nM.
On to `CS(=O)(=O)NC(=O)c1nc(N(Cc2ccc3occc3c2)c2ccc(C#N)cc2)sc1Cl` [Example 279, 2-[N-(benzofuran-5-ylmethyl)-4-cyano-anilino]-5-chloro-N-methylsulfonyl-thiazole-4-carboxamide], for which the EC50 in assay [1] was 31.6 nM; at human androgen receptor, 50.1 nM.
In the same order, the values of `COCCCS(=O)(=O)NC(=O)c1nc(N(CCc2ccc(C#N)cc2)Cc2ccc(F)cc2Cl)oc1C` [Compound 558, 2-[(2-chloro-4-fluoro-phenyl)methyl-[2-(4-cyanophenyl)ethyl]amino]-N-(3-methoxypropylsulfonyl)-5-methyl-oxazole-4-carboxamide] are 63.1 nM and over 10000 nM.
For the compound `Cc1sc(N(CCc2ccc(Cl)cc2)Cc2ccc(Cl)cc2)nc1C(=O)NS(=O)(=O)Cc1cccnc1` [Compound 695, 2-[2-(4-chlorophenyl)ethyl-[(4-chlorophenyl)methyl]amino]-5-methyl-N-(3-pyridylmethylsulfonyl)thiazole-4-carboxamide], the EC50 in assay [1] was 25.1 nM; at human androgen receptor, 63.1 nM.
Regarding `Cc1sc(N(CCc2ccc(Cl)cc2)Cc2nc(C3CC3)no2)nc1C(=O)NS(C)(=O)=O` [Compound 161, 2-[2-(4-chlorophenyl)ethyl-[(3-cyclopropyl-1,2,4-oxadiazol-5-yl)methyl]amino]-5-methyl-N-methylsulfonyl-thiazole-4-carboxamide], the EC50 in assay [1] is 126 nM; at human androgen receptor, 501 nM.
For `Cc1nc(CN(CCc2ccc(Cl)cc2)c2nc(C(=O)NS(C)(=O)=O)c(C)s2)cs1` [Compound 504, 2-[2-(4-chlorophenyl)ethyl-[(2-methylthiazol-4-yl)methyl]amino]-5-methyl-N-methylsulfonyl-thiazole-4-carboxamide], the EC50 is 63.1 nM in assay [1] and 631 nM on human androgen receptor.
Regarding `Cc1sc(N(Cc2ccccc2)c2ccc(C#N)cc2)nc1C(=O)NS(=O)(=O)CCC(F)(F)F` [Compound 387, 2-(N-benzyl-4-cyano-anilino)-5-methyl-N-(3,3,3-trifluoropropylsulfonyl)thiazole-4-carboxamide], the values for the EC50 (in assay [1]; on human androgen receptor) were 63.1 nM and 398 nM, respectively.
With `Cc1sc(N(Cc2ccc(C(F)(F)F)cc2F)c2ccc(C#N)cc2)nc1C(=O)NS(C)(=O)=O` [Compound 498, 2-[4-cyano-N-[[2-fluoro-4-(trifluoromethyl)phenyl]methyl]anilino]-5-methyl-N-methylsulfonyl-thiazole-4-carboxamide], the EC50 was 31.6 nM in assay [1] and 100 nM at human androgen receptor.
Regarding `Cc1sc(N(CCc2cccc(Cl)c2)c2ccc(C#N)cc2)nc1C(=O)NS(C)(=O)=O` [Compound 139, 2-[N-[2-(3-chlorophenyl)ethyl]-4-cyano-anilino]-5-methyl-N-methylsulfonyl-thiazole-4-carboxamide], the EC50 in assay [1] is 79.4 nM; at human androgen receptor, 1580 nM.
On to `CS(=O)(=O)NC(=O)c1nc(N(Cc2ccc(Cl)c(Cl)c2)c2ccc(C#N)cc2)oc1C1CC1` [Compound 647, 2-[4-cyano-N-[(3,4-dichlorophenyl)methyl]anilino]-5-cyclopropyl-N-methylsulfonyl-oxazole-4-carboxamide], for which the EC50 in assay [1] was 25.1 nM; on human androgen receptor it was over 10000 nM.
Regarding `Cc1sc(N(Cc2ccc(OCC(F)F)cc2)c2ccc(C#N)cc2)nc1C(=O)NS(C)(=O)=O` [Compound 577, 2-[4-cyano-N-[[4-(2,2-difluoroethoxy)phenyl]methyl]anilino]-5-methyl-N-methylsulfonyl-thiazole-4-carboxamide], the figures for the EC50 (in assay [1]; on human androgen receptor) were 63.1 nM and 501 nM, respectively.
In the same order, the values of `COCCCCS(=O)(=O)NC(=O)c1nc(N(Cc2ccc(OC(F)(F)F)cc2)c2ccc(C#N)cc2)sc1C` [Compound 539, 2-[4-cyano-N-[[4-(trifluoromethoxy)phenyl]methyl]anilino]-N-(4-methoxybutylsulfonyl)-5-methyl-thiazole-4-carboxamide] are 15.8 nM and 158 nM.
On to `COCCCS(=O)(=O)NC(=O)c1nc(N(CCc2ccc(C#N)cc2)Cc2ccc(F)cc2)oc1C` [Compound 556, 2-[2-(4-cyanophenyl)ethyl-[(4-fluorophenyl)methyl]amino]-N-(3-methoxypropylsulfonyl)-5-methyl-oxazole-4-carboxamide], for which the EC50 in assay [1] was 100 nM; on human androgen receptor, 1260 nM.
Regarding `Cc1sc(N(Cc2ncc(C(F)(F)F)cc2F)c2ccc(C#N)cc2)nc1C(=O)NS(C)(=O)=O` [Example 170, 2-[4-cyano-N-[[3-fluoro-5-(trifluoromethyl)-2-pyridyl]methyl]anilino]-5-methyl-N-methylsulfonyl-thiazole-4-carboxamide], the EC50 in assay [1] is 63.1 nM; at human androgen receptor, 200 nM.
Regarding `Cc1oc(N(Cc2ccc(Cl)cc2)c2ccc(C#N)cc2)nc1C(=O)NS(C)(=O)=O` [Example 286, 2-[N-[(4-chlorophenyl)methyl]-4-cyano-anilino]-5-methyl-N-methylsulfonyl-oxazole-4-carboxamide], the EC50 was 501 nM in assay [1] and 316 nM at human androgen receptor.
For `Cc1oc(N(CCc2ccc(OC(F)(F)F)cc2)Cc2nc(C3CC3)no2)nc1C(=O)NS(C)(=O)=O` [Compound 560, 2-[(3-cyclopropyl-1,2,4-oxadiazol-5-yl)methyl-[2-[4-(trifluoromethoxy)phenyl]ethyl]amino]-5-methyl-N-methylsulfonyl-oxazole-4-carboxamide], the results for the EC50 (in assay [1]; on human androgen receptor) were 50.1 nM and 1000 nM, respectively.
For the compound `CCOC(=O)CS(=O)(=O)NC(=O)c1nc(N(Cc2ccccc2)c2ccc(C#N)cc2)sc1C` [Compound 384, ethyl 2-[[2-(N-benzyl-4-cyano-anilino)-5-methyl-thiazole-4-carbonyl]sulfamoyl]acetate], the EC50 is 39.8 nM in assay [1] and 251 nM on human androgen receptor.
For `Cc1sc(N(CCc2ccc(Cl)cc2)Cc2ccccc2)nc1C(=O)NS(C)(=O)=O` [Example 299, 2-[benzyl-[2-(4-chlorophenyl)ethyl]amino]-5-methyl-N-methylsulfonyl-thiazole-4-carboxamide], in that order: 31.6 nM and 126 nM.
